# Assay results published in patent US9447044B2, “Thioaryl derivatives as GPR120 agonists” (LG LIFE SCIENCES LTD., priority 2012, dated 2016).
# Target: T1, hGPR120 (Homo sapiens, UniProt Q5NUL3)
# T1 construct: expressed in transfected cells; host or cells: CHO-K1
# T1 sequence (Q5NUL3 1-361): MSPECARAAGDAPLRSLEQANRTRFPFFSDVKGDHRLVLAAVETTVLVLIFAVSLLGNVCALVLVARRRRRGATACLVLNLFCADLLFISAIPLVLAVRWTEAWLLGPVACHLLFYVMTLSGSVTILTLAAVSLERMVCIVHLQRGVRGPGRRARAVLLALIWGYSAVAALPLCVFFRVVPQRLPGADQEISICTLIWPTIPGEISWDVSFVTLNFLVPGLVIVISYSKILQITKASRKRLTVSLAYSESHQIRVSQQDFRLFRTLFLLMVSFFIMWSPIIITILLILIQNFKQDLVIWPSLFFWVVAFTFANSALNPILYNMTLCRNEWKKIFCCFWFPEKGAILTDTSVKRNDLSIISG
# Assay: Measurement of activity of GPR120 agonist (cell-based assay), calcium fluorescence
# Conditions: CHO-K1 cells expressing Ga16 and hGPR120; Calcium 5 dye fluorescence; activity class
# Procedure: CHO-K1 cells expressing Ga16 and hGPR120 were dispensed into each well of a 96-well plate (3×10^4 cells/100 μl/well) and then incubated in 5% CO2, 37° C. incubator for 18 hours. Each well was treated with 100 μl of Calcium 5 dye (Molecular Devices) solution including 2% DMSO and then incubated in 5% CO2, 37° C. incubator for 1 hour. Serially diluted GPR120 agonists were prepared to a final concentration of 0.5% DMSO in a 96-well plate. Each well was treated with 50 μl of the agonist compounds using Plexstation II, and then fluorescence was measured at Ex 485 nm, Em 525 nm.
# Fluorescence increased by the serially diluted GPR120 agonists is calculated as a relative percent (%) value based on the fluorescence represented by the treatment of 0.1% DMSO only. […] The calculation of measurement was carried out by using statistical software (Prizm).
# Activity is denoted based on the following criteria: A=>20 μM, B=[…], C=2˜0.2 μM, D=<0.2 μM
row,Structure (SMILES),EC50
1,"O=C(O)CCc1cc(F)c(OCc2cccnc2SCC(F)(F)F)c(F)c1 [Example 18, 3-{3,5-difluoro-4-[2-(2,2,2-trifluoro-ethylsulfanyl)-pyridin-3-ylmethoxy]-phenyl}-propionic acid]",200 to 2000 nM
2,"CC(C)Sc1nccc(COc2c(F)cc(CCC(=O)O)cc2F)n1 [Example 24, 3-[3,5-difluoro-4-(2-isopropylsulfanyl-pyrimidin-4-ylmethoxy)-phenyl]-propionic acid]",200 to 2000 nM
3,"CC(Cc1ccc(OCc2cccnc2SC2CCCC2)cc1)C(=O)O (centres unmarked) [Example 25, 3-[4-(2-cyclopentylsulfanyl-pyridin-3-ylmethoxy)-phenyl]-2-methyl-propionic acid]",< 200 nM
4,"CCCCSc1ncccc1COc1c(F)cc(CCC(=O)O)cc1F [Example 26, 3-[4-(2-butylsulfanyl-pyridin-3-ylmethoxy)-3,5-difluoro-phenyl]-propionic acid]",< 200 nM
5,O=C(O)CCc1cc(F)c(OCc2cccc(SC3CCCCC3)n2)c(F)c1 [Example 31],< 200 nM
6,CCc1ccc(COc2c(F)cc(CCC(=O)O)cc2F)c(SC(C)C)n1 [Example 32],200 to 2000 nM
7,"CC(C)Sc1cccc(COc2c(F)cc(CCC(=O)O)cc2F)n1 [Example 33, 3-[3,5-difluoro-4-(6-isopropylsulfanyl-pyridin-2-ylmethoxy)-phenyl]-propionic acid]",< 200 nM
8,"CCC(C)Sc1cccc(COc2c(F)cc(CCC(=O)O)cc2F)n1 (centres unmarked) [Example 34, 3-[4-(6-sec-butylsulfanyl-pyridin-2-ylmethoxy)-3,5-difluoro-phenyl]-propionic acid]",< 200 nM
9,"O=C(O)C1CC1c1cc(F)c(OCc2cccc(SC3CCCC3)n2)c(F)c1 (centres unmarked) [Example 35, 2-[4-(6-cyclopentylsulfanyl-pyridin-2-ylmethoxy)-3,5-difluoro-phenyl]-cyclopropane carboxylic acid]",< 200 nM
10,"O=C(O)C1CC1c1cc(F)c(OCc2cccnc2SC2CCC2)c(F)c1 (centres unmarked) [Example 36, 2-[4-(2-cyclobutylsulfanyl-pyridin-3-ylmethoxy)-3,5-difluoro-phenyl]-cyclopropane carboxylic acid]",< 200 nM
11,"CC(Cc1ccc(OCc2cccnc2SC2CCC2)c(F)c1)C(=O)O (centres unmarked) [Example 37, 3-[4-(2-cyclobutylsulfanyl-pyridin-3-ylmethoxy)-3-fluoro-phenyl]-2-methyl-propionic acid]",< 200 nM
12,"CC(Cc1ccc(OCc2cccnc2SCC2CC2)c(F)c1)C(=O)O (centres unmarked) [Example 40, 3-[4-(2-cyclopropylmethylsulfanyl-pyridin-3-ylmethoxy)-3-fluoro-phenyl]-2-methyl-propionic acid]",< 200 nM
13,"CC(Cc1cc(F)c(OCc2cccc(SC3CCCC3)n2)c(F)c1)C(=O)O (centres unmarked) [Example 44, 3-[4-(6-cyclopentylsulfanyl-pyridin-2-ylmethoxy)-3,5-difluoro-phenyl]-2-methyl-propionic acid]",< 200 nM
14,"CC(Cc1cc(F)c(OCc2cccc(SC3CCC3)n2)c(F)c1)C(=O)O (centres unmarked) [Example 46, 3-[4-(6-cyclobutylsulfanyl-pyridin-2-ylmethoxy)-3,5-difluoro-phenyl]-2-methyl-propionic acid]",< 200 nM
15,"CC(Cc1cc(F)c(OCc2cccnc2SC2CCCC2)c(F)c1)C(=O)O (centres unmarked) [Example 47, 3-[4-(2-cyclopentylsulfanyl-pyridin-3-ylmethoxy)-3,5-difluoro-phenyl]-2-methyl-propionic acid]",< 200 nM
16,"CCC(C)Sc1cccc(COc2c(F)cc(CC(C)C(=O)O)cc2F)n1 (centres unmarked) [Example 48, 3-[4-(6-sec-butylsulfanyl-pyridin-2-ylmethoxy)-3,5-difluoro-phenyl]-2-methyl-propionic acid]",200 to 2000 nM

# Results, then the compound that gave them:
row,EC50,Structure (SMILES)
1,< 200 nM,"CCC(C)Sc1ncccc1COc1c(F)cc(CCC(=O)O)cc1F (centres unmarked) [Example 19, 3-[4-(2-sec-butylsulfanyl-pyridin-3-ylmethoxy)-3,5-difluoro-phenyl]-propionic acid]"
2,200 to 2000 nM,"CC(C)Sc1nccnc1COc1c(F)cc(CCC(=O)O)cc1F [Example 20, 3-[3,5-difluoro-4-(3-isopropylsulfanyl-pyrazin-2-ylmethoxy)-phenyl]-propionic acid]"
3,200 to 2000 nM,"O=C(O)CCc1cc(F)c(OCc2cccnc2SC2CCCCC2)c(F)c1 [Example 22, 3-[4-(2-cyclohexylsulfanyl-pyridin-3-ylmethoxy)-3,5-difluoro-phenyl]-propionic acid]"
4,< 200 nM,"O=C(O)CCc1cc(F)c(OCc2cccnc2SC2CCC2)c(F)c1 [Example 23, 3-[4-(2-cyclobutylsulfanyl-pyridin-3-ylmethoxy)-3,5-difluoro-phenyl]-propionic acid]"
5,200 to 2000 nM,"O=C(O)CCc1cc(F)c(OCc2cccnc2SCCC(F)(F)F)c(F)c1 [Example 27, 3-{3,5-difluoro-4-[2-(3,3,3-trifluoro-propylsulfanyl)-pyridin-3-ylmethoxy]-phenyl}-propionic acid]"
6,200 to 2000 nM,"CC(C)(C)CSc1ncccc1COc1c(F)cc(CCC(=O)O)cc1F [Example 28, 3-{4-[2-(2,2-dimethyl-propylsulfanyl)-pyridin-3-ylmethoxy]-3,5-difluoro-phenyl}-propionic acid]"
7,< 200 nM,O=C(O)CCc1ccc(OCc2cccc(SC3CCCC3)n2)cc1 [Example 29]
8,< 200 nM,O=C(O)CCc1cc(F)c(OCc2cccc(SC3CCCC3)n2)c(F)c1 [Example 30]
9,< 200 nM,"CC(Cc1ccc(OCc2cccnc2SC2CCCC2)c(F)c1)C(=O)O (centres unmarked) [Example 38, 3-[4-(2-cyclopentylsulfanyl-pyridin-3-ylmethoxy)-3-fluoro-phenyl]-2-methyl-propionic acid]"
10,< 200 nM,"CCC(C)Sc1ncccc1COc1ccc(CC(C)C(=O)O)cc1F (centres unmarked) [Example 39, 3-[4-(2-sec-butylsulfanyl-pyridin-3-ylmethoxy)-3-fluoro-phenyl]-2-methyl-propionic acid]"
11,< 200 nM,"CC(C)Sc1ncccc1COc1c(F)cc(CC(C)C(=O)O)cc1F (centres unmarked) [Example 41, 3-[3,5-difluoro-4-(2-isopropylsulfanyl-pyridin-3-ylmethoxy)-phenyl]-2-methyl-propionic acid]"
12,200 to 2000 nM,"CCC(C)Sc1ncccc1COc1c(F)cc(CC(C)C(=O)O)cc1F (centres unmarked) [Example 42, 3-[4-(2-sec-butylsulfanyl-pyridin-3-ylmethoxy)-3,5-difluoro-phenyl]-2-methyl-propionic acid]"
13,< 200 nM,"COc1ccc(COc2c(F)cc(CCC(=O)O)cc2F)c(SC(C)C)n1 [Example 43, 3-[3,5-difluoro-4-(2-isopropylsulfanyl-6-methoxy-pyridin-3-ylmethoxy)-phenyl]-propionic acid]"
14,< 200 nM,"Cc1ccc(COc2c(F)cc(CCC(=O)O)cc2F)c(SC2CCCC2)n1 [Example 45, 3-[4-(2-cyclopentylsulfanyl-6-methyl-pyridin-3-ylmethoxy)-3,5-difluoro-phenyl]-propionic acid]"
15,< 200 nM,"CC(C)Sc1cccc(COc2c(F)cc(CC(C)C(=O)O)cc2F)n1 (centres unmarked) [Example 49, 3-[3,5-difluoro-4-(6-isopropylsulfanyl-pyridin-2-ylmethoxy)-phenyl]-2-methyl-propionic acid]"

# Same assay, conditions: CHO-K1 cells expressing Ga16 and hGPR120; Calcium 5 dye fluorescence; numeric value
row,EC50,Structure (SMILES)
1,68 nM,"O=C(O)CCCc1ccc(OCc2cccnc2SC2CCCC2)cc1 [Example 21, 4-[4-(2-cyclopentylsulfanyl-pyridin-3-ylmethoxy)-phenyl]-butyric acid]"
